According to US9115092B2, “Substituted quinazoline and pyrido-pyrimidine derivatives” (Asana Biosciences, LLC, priority 2010, dated 2015):

How the values were obtained:
[1] = test system: PC3 cells; test: XTT assay for cell viability, PC3 cells; format: cell-based, human
Summary of the method: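 PC3 cells seeded at 1000 cells/well, grown 24 h, then exposed to serial dilutions of compound for 96 h. Viability read by XTT dye at 37° C, absorbance 465 nm. EC50 from sigmoidal dose-response fit.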

[2] = molecular target: T1, PI3Kα (wild-type), P110/P85α (Homo sapiens, UniProt P42336); test: PI3 Kinase TR-FRET assay, PI3Kα (wild-type); format: biochemical
T1 construct: made in house; host or cells: SF9 insect cells
Summary of the method: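 TR-FRET read-out of PIP3 formation via biotin-PIP3 displacement (665/615 nm ratio) gave IC50 curves. Enzyme: 5 ng wild-type P110/P85α from Sf9 cells, 60 min RT with compound and PIP2 (MgCl2 40 mM, DTT 5 mM), then 30 min RT kinase reaction at 10 μM ATP and 10 μM PIP2.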

[3] = test system: pS6RP(S235/236), PC3 cells; test: In-cell Western assay, pS6RP(S235/236) in PC3 cells; format: cell-based, human
Method: Cells from human prostate cancer cell line PC3 (American Type Culture Collection (ATCC), Manassas, Va. 20108 USA) were seeded at an optimal density of 22,000 cell/well in 96-well plates containing Ham's F12K medium (90 μL) and incubated overnight. The compound dilutions were carried out in 100% DMSO followed by a dilution in the medium. Test compounds were added in serial dilutions to the wells and incubated for 2 h. The cells were washed and fixed with 4% paraformaldehyde. After incubation at room temperature for 1 h in the dark, blocking was done for 2 h at room temperature. Primary antibodies for phosphorylated (p) AKT(5473) (phosphorylated at serine 473), pAKT(T308) (phosphorylated at threonine 308) and for pS6RP(S235/236) (phosphorylated at serine 235/236) (commercially available from Cell Signaling Technology®, whose protocol was followed for the in-cell western assay, were diluted to the required concentration and added to the corresponding wells followed by overnight incubation at 4° C. Eu-labeled rabbit (PE) (Perkin-Elmer USA catalog #AD0106) secondary antibody was added and incubated for 2 h at room temperature. Delfia® enhancement solution (cat #1244-105, Perkin Elmer USA) was subsequently added to the plate before taking the reading at 615 nm with excitation wavelength of 340 nm, after which 0.5 μg/mL of Hoechst® 33258 dye (Catalog #86140-5, Sigma) was added to the plate and fluorescence emission was read at 460 nm with 355 nm excitation, to evaluate the correction factor. IC50 values were calculated using a sigmoidal dose-response curve fit in GraphPad Prism® v5 software.

[4] = molecular target: T2, mTOR kinase (Homo sapiens, UniProt P42345); test: mTOR kinase TR-FRET assay; format: biochemical; settings: read-out: mTO R
T2 construct: purchased Millipore, USA
Summary of the method: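 TR-FRET read-out (340 nm excitation, 615/665 nm emission) of Thr389 phosphorylation of a ULight-labeled p70 S6K peptide (50 nM) by mTOR, 20 μM ATP, 60 min room temperature after 60 min compound preincubation. Buffer HEPES pH 7.5 with MnCl2, EGTA; IC50 by sigmoidal dose-response.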

[5] = Homo sapiens, PC-3, cell viability
[6] = Homo sapiens, PC-3, In-cell Western

T1 sequence (P42336 whole entry): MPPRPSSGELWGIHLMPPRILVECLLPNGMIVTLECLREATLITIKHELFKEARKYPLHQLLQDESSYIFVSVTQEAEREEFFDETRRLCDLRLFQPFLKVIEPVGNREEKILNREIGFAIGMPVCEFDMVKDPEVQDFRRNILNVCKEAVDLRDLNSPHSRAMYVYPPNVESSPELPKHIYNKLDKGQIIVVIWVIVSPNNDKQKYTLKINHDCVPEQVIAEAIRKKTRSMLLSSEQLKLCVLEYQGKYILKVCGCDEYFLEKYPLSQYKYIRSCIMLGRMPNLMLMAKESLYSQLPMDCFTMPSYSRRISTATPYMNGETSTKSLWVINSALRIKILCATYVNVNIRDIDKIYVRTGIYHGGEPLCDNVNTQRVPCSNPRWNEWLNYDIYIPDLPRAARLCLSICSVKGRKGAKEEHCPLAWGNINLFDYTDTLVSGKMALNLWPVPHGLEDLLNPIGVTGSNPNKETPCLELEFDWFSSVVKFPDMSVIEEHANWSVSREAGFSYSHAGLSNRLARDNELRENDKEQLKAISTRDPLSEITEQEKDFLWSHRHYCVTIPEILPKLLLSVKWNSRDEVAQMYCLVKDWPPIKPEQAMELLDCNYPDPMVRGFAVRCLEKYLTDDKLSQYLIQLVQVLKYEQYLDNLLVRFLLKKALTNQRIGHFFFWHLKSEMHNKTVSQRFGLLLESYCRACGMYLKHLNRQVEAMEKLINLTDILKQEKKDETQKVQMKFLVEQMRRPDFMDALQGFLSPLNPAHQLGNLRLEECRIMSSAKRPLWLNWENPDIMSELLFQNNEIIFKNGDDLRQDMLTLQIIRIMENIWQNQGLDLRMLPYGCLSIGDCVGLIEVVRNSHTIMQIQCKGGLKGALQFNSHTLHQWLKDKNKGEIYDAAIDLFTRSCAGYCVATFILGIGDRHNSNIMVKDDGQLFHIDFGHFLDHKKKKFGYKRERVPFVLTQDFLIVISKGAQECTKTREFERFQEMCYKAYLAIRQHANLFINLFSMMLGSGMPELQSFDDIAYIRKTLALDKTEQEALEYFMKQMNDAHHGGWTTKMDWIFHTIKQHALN
T1 sequence (P27986 whole entry partner): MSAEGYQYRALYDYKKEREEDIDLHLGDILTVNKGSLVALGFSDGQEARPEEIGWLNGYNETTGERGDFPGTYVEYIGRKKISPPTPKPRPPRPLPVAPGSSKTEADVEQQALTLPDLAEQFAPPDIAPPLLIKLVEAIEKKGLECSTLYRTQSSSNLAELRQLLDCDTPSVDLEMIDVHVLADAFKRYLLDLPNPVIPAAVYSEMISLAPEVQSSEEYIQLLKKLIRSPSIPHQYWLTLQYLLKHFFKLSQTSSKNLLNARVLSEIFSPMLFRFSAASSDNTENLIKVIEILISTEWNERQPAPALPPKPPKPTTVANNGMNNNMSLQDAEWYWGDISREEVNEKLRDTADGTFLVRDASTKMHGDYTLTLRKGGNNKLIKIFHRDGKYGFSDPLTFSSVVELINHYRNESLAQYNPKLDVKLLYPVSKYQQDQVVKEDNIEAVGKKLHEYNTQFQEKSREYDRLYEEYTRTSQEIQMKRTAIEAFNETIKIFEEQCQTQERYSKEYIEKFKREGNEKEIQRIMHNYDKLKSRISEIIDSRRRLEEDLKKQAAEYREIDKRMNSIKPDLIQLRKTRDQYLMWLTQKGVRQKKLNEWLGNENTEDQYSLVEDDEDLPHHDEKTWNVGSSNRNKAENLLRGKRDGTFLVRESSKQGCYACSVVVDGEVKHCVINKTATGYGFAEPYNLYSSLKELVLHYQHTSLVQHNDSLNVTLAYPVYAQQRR

| Compound | IC50 [1, 5] | IC50 [2] | IC50 [3, 6] | IC50 [4] | IC50 ([1]; cell viability) | IC50 ([3]; In-cell Western) |
| --- | --- | --- | --- | --- | --- | --- |
| NC1CCN(C(=O)c2ccc(NC(=O)Nc3ccc(-c4nc(N5CCOCC5)c5ccc(-c6cncnc6)cc5n4)cc3F)cc2)C1 (stereo in doubt) [Example 208, (S)-1-(4-(3-aminopyrrolidine-1-carbonyl)phenyl)-3-(2-fluoro-4-(4-morpholino-7-(pyrimidin-5-yl)quinazolin-2-yl)phenyl)urea] | 201 to 10000 nM | < 50 nM | 201 to 10000 nM | < 50 nM |  |  |
| Cc1noc(C)c1-c1ccc2c(N3CCOCC3)nc(-c3ccc(NC(=O)Nc4ccc(C(=O)N5CCC(N(C)C)C5)cc4)cc3)nc2c1 (stereo in doubt) [Example 220, (S)-1-(4-(3-(dimethylamino)pyrrolidine-1-carbonyl)phenyl)-3-(4-(7-(3,5-dimethylisoxazol-4-yl)-4-morpholino-quinazolin-2-yl)phenyl)urea] | 201 to 10000 nM | 50 to 200 nM | 201 to 10000 nM | < 50 nM |  |  |
| CN(C)C1CCN(C(=O)c2ccc(NC(=O)Nc3ccc(-c4nc(N5CCOCC5)c5ccc(C(C)(C)O)cc5n4)cc3)cc2)C1 (stereo in doubt) [Example 289, (S)-1-(4-(3-(dimethylamino)pyrrolidine-1-carbonyl)phenyl)-3-(4-(7-(2-hydroxypropan-2-yl)-4-morpholino-quinazolin-2-yl)phenyl)urea] | 201 to 10000 nM | 50 to 200 nM | 201 to 10000 nM | < 50 nM |  |  |
| CN(C)C(=O)c1ccc(NC(=O)Nc2ccc(-c3nc(N4CCOCC4)c4ccc(-c5cccc(O)c5)cc4n3)cc2)cc1 [Example 41, 4-(3-{4-[7-(3-hydroxy-phenyl)-4-morpholin-4-yl-quinazolin-2-yl]-phenyl}-ureido)-N,N-dimethyl-benzamide] | 100 to 500 nM | < 50 nM | < 100 nM | 50 to 200 nM |  |  |
| Cc1ccncc1-c1ccc2c(N3CCOCC3)nc(-c3ccc(NC(=O)Nc4ccc(C(=O)N(C)C)cc4)cc3)nc2c1 [Example 62, N,N-dimethyl-4-(3-{4-[7-(4-methyl-pyridin-3-yl)-4-morpholin-4-yl-quinazolin-2-yl]-phenyl}-ureido)-benzamide] | 100 to 500 nM | < 50 nM | < 100 nM | < 50 nM |  |  |
| CN(C)C(=O)c1ccc(NC(=O)Nc2ccc(-c3nc(N4CCOCC4)c4ccc(-c5ccncc5F)cc4n3)cc2)cc1 [Example 65, 4-(3-{4-[7-(3-fluoro-pyridin-4-yl)-4-morpholin-4-yl-quinazolin-2-yl]-phenyl}-ureido)-N,N-dimethyl-benzamide] | 100 to 500 nM | < 50 nM | < 100 nM | < 50 nM |  |  |
| CN(C)CCN(C)C(=O)c1ccc(NC(=O)Nc2ccc(-c3nc(N4CCOCC4)c4ccc(-c5ccncc5)cc4n3)cc2)cc1 [Example 72, N-(2-dimethylamino-ethyl)-N-methyl-4-{3-[4-(4-morpholin-4-yl-7-pyridin-4-yl-quinazolin-2-yl)-phenyl]-ureido}-benzamide] | 100 to 500 nM | < 50 nM | < 100 nM | < 50 nM |  |  |
| CN(C)C(=O)c1ccc(NC(=O)Nc2ccc(-c3nc(N4CCOCC4)c4ccc(-c5ccco5)cc4n3)cc2)cc1 [Example 80, N,N-dimethyl-4-(3-{4-[7-(furan-2-yl)-4-morpholin-4-yl-quinazolin-2-yl]-phenyl}-ureido)-benzamide] |  | < 50 nM |  | < 50 nM | < 100 nM | < 100 nM |
| CN(C)C1CCN(C(=O)c2ccc(NC(=O)Nc3ccc(-c4nc(N5CCOCC5)c5ccc(-c6cccnc6F)cc5n4)cn3)cc2)CC1 [Example 81, 1-(4-(4-(dimethylamino)piperidine-1-carbonyl)phenyl)-3-(5-(7-(2-fluoropyridin-3-yl)-4-morpholine-quinazolin-2-yl)pyridin-2-yl)urea] | 501 to 5000 nM | < 50 nM | < 100 nM | < 50 nM |  |  |
| CN(C)C(=O)c1ccc(NC(=O)Nc2ccc(-c3nc(N4CCOCC4)c4ccc(-c5cncnc5)cc4n3)cc2F)cc1 [Example 84, 4-(3-(2-fluoro-4-(4-morpholino-7-(pyrimidin-5-yl)quinazolin-2-yl)phenyl)ureido)-N,N-dimethyl-benzamide] | 201 to 10000 nM | 50 to 200 nM | 201 to 10000 nM | < 50 nM |  |  |
| CN(C)C(=O)c1ccc(NC(=O)Nc2ccc(-c3nc(N4CCOCC4)c4ncc(-c5cnn(C)c5)cc4n3)cn2)cc1 [Example 85, N,N-dimethyl-4-(3-(5-(7-(1-methyl-1H-pyrazol-4-yl)-4-morpholino-pyrido[3,2-d]pyrimidin-2-yl)pyridin-2-yl)ureido)-benzamide] | 201 to 10000 nM | < 50 nM | 201 to 10000 nM | < 50 nM |  |  |

Results, then the compound that gave them:

| IC50 [1, 5] | IC50 [2] | IC50 [3, 6] | IC50 [4] | IC50 ([1]; cell viability) | IC50 ([3]; In-cell Western) | Compound |
| --- | --- | --- | --- | --- | --- | --- |
| 201 to 10000 nM | < 50 nM | 201 to 10000 nM | < 50 nM |  |  | CN(C)C1CCN(C(=O)c2ccc(NC(=O)Nc3ccc(-c4nc(N5CCOCC5)c5ncc(-c6cccnc6F)cc5n4)cc3F)cc2)C1 (stereo in doubt) [Example 213, (S)-1-(4-(3-(dimethylamino)pyrrolidine-1-carbonyl)phenyl)-3-(2-fluoro-4-(7-(2-fluoropyridin-3-yl)-4-morpholino-pyrido[3,2-d]pyrimidin-2-yl)phenyl)urea] |
| 201 to 10000 nM | < 50 nM | 201 to 10000 nM | < 50 nM |  |  | CN(C)C(=O)c1ccc(NC(=O)Nc2ccc(-c3nc(N4CCOCC4)c4ccc(C(C)(C)O)cc4n3)cc2)cc1 [Example 16, 4-(3-(4-(7-(2-hydroxypropan-2-yl)-4-morpholino-quinazolin-2-yl)phenyl)ureido)-N,N-dimethyl-benzamide] |
| 100 to 500 nM | 50 to 200 nM | < 100 nM | < 50 nM |  |  | CN(C)C(=O)c1ccc(NC(=O)Nc2ccc(-c3nc(N4CCOCC4)c4cccc(-c5cccnc5F)c4n3)cc2)cc1 [Example 40, 4-(3-{4-[8-(2-fluoro-pyridin-3-yl)-4-morpholin-4-yl-quinazolin-2-yl]-phenyl}-ureido)-N,N-dimethyl-benzamide] |
| 100 to 500 nM | < 50 nM | < 100 nM | < 50 nM |  |  | CN(C)C(=O)c1ccc(NC(=O)Nc2ccc(-c3nc(N4CCOCC4)c4ccc(-c5cnn(C)c5)cc4n3)cn2)cc1 [Example 55, N,N-dimethyl-4-(3-{5-[7-(1-methyl-1H-pyrazol-4-yl)-4-morpholin-4-yl-quinazolin-2-yl]-pyridin-2-yl}-ureido)-benzamide] |
| 100 to 500 nM | < 50 nM | 100 to 500 nM | < 50 nM |  |  | Cc1ccc(-c2ccc3c(N4CCOCC4)nc(-c4ccc(NC(=O)Nc5ccc(C(=O)N(C)CCN(C)C)cc5)cc4)nc3c2)o1 [Example 63, N-(2-dimethylamino-ethyl)-N-methyl-4-(3-{4-[7-(5-methyl-furan-2-yl)-4-morpholin-4-yl-quinazolin-2-yl]-phenyl}-ureido)-benzamide] |
| 100 to 500 nM | < 50 nM | < 100 nM | < 50 nM |  |  | CC(=O)Nc1cncc(-c2ccc3c(N4CCOCC4)nc(-c4ccc(NC(=O)Nc5ccc(C(=O)N(C)C)cc5)cc4)nc3c2)c1 [Example 66, 4-(3-{4-[7-(5-acetylamino-pyridin-3-yl)-4-morpholin-4-yl-quinazolin-2-yl]-phenyl}-ureido)-N,N-dimethyl-benzamide] |
| 100 to 500 nM | < 50 nM | < 100 nM | < 50 nM |  |  | CN1CCN(C(=O)c2ccc(NC(=O)Nc3ccc(-c4nc(N5CCOCC5)c5ccc(-c6ccncc6)cc5n4)cc3)cc2)CC1 [Example 69, 1-[4-(4-methyl-piperazine-1-carbonyl)-phenyl]-3-[4-(4-morpholin-4-yl-7-pyridin-4-yl-quinazolin-2-yl)-phenyl]-urea] |
| 201 to 10000 nM | 50 to 200 nM | 201 to 10000 nM | < 50 nM |  |  | CN(C)CCn1cc(-c2ccc3c(N4CCOCC4)nc(-c4ccc(NC(=O)Nc5ccc(C(=O)N(C)C)cc5)cc4)nc3c2)cn1 [Example 83, 4-(3-(4-(7-(1-(2-(dimethylamino)ethyl)-1H-pyrazol-4-yl)-4-morpholino-quinazolin-2-yl)phenyl)ureido)-N,N-dimethyl-benzamide] |
